Assay results reported in patent US5480905A, “Benzodioxane derivatives” (Chugai Seiyaku Kabushiki Kaisha, priority 1991, dated 1996).
“Also recorded” adds a separate entry of the source.

What was measured:
serotonin 1A receptor = target: T1, serotonin 1A receptor (Rattus norvegicus, UniProt P19327); assay: Serotonin 1A receptor binding experiment (3H-8-OH-DPAT); settings: rat cortex and hippocampal tissue; 0.5 nM 3H-8-OH-DPAT; IC50 in M; read-out: -logIC50 5-HT1A (converted)
T1 construct: the cortex and hippocampal tissue were extracted from the brain; from tissue; host or cells: brain cortex and hippocampus of 7-week-old male S.D. rats, washed membrane homogenate
T1 sequence (P19327 1-422): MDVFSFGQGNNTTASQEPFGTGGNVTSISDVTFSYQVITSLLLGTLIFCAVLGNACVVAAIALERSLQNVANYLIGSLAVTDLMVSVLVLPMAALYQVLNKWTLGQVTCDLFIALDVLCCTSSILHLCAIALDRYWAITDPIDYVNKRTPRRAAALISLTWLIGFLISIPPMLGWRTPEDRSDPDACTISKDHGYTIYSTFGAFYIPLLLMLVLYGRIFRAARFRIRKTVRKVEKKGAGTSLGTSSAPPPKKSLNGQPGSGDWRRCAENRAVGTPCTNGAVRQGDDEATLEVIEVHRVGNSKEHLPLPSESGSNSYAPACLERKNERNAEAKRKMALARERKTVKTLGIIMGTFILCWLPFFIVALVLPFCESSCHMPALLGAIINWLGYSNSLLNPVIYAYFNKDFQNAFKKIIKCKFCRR
Protocol: (§1) Affinity for intracerebral serotonin 1A and serotonin 2 receptor was checked in accordance with the method of Hall et al. (J. Neurochem., 44, 1685-1695, 1985) and the method of Leysen et al. (Mol. Pharmacol., 21, 301-314, 1982).
(§2) Stated more specifically, the cortex and hippocampal tissue were extracted from the brain of 7-wk old S.D. line male rats, mixed with 20 volumes of Tris-HCl buffer (50 mM, pH 7.7) and homogenized with a Teflon homogenizer. Thereafter, the homogenate was centrifuged at 39800×g for 20 min and the supernatant was discarded. Forty volumes of a buffer were added to the precipitate and the mixture was homogenized with a Polytron homogenizer, with the homogenate being centrifuged under the same condition as set forth above. The same procedure was repeated two more times and the final precipitate was homogenized with 40 volumes of a buffer; thereafter, the homogenate was stored at least overnight at -80° C. On the day when binding experiments were to be conducted, the homogenate was thawed at room temperature and incubated at 37° C. for 20 min to remove the endogenous serotonin.
(§3) Thereafter, centrifugation was conducted at 39800×g for 20 min and 40 volumes of a buffer were added to the precipitate, followed by homogenization. This procedure was repeated three times; to the final precipitate, a buffer was added in 65 volumes for the case of serotonin 1A receptor and in 80 volumes for the case of serotonin 2 receptor and the mixture was homogenized in preparation for the binding experiments that are described below. All procedures of experimentation except storage in a frozen state and thawing at room temperature were conducted at 4° C. or below.
A reaction solution containing 0.5 nM (final concentration) of 3H-8-hydroxy-2-(di-n-propylamino)tetralin (8-OH-DPAT), […] and 500 μl of brain homogenate in 1.0 ml (final volume) of a buffer was incubated at 25° C. for 30 min. Thereafter, the reaction solution was filtered by rapid passage through a glass filler. The filter was washed rapidly with an ice-cooled buffer (3 ml) three times, put into a scintillation vial together with a scintillation cocktail, and left to stand overnight at 4° C. On the next day, the vial was agitated well and measurements were conducted with a scintillation counter. To determine the amount of specific binding, the amount of binding in the presence of excess unlabeled serotonin (10 μM) was subtracted from the total amount of binding. As an index for the affinity of a test compound for either receptor, the concentration at which the specific binding of ^3 H-DPAT was inhibited by 50% (IC50, M) was determined using computer software EBDA/LIGAND (Biosoft).

S.D. line male rats [1] = assay: Antidepressant effect, compelled swim test (Porsolt), time over which rats remain motionless; type: in vivo, rat; parameters: Antidepressant effect / Antidepressant effect, longevity: scale not given here; settings: for inhibition in vivo at 20 mg/kg / ED50: Rattus norvegicus, po, 0.5 h; for inhibition in vivo at 20 mg/kg: 30 min before swim, read-out: Antidepressant effect, Efficacy; for ED50: peroral, probit method, read-out: ED50, dose reducing motionless time by one half vs control
Protocol: An antidepression test was conducted in accordance with the method of Porsolt et al. (Europ. J. Pharmacol., 47, 379-391, 1978). Stated more specifically, 7-wk old S.D. line male rats were placed in a glass cylinder (18 cm^.phi. ×40 cm^H) for 15 min. The cylinder was filled with water (25° C.) to a depth of 15 cm. Thereafter, the rats were placed in a hot environment (32° C.) for 15 min before they were returned to the cage. Twenty-four hours later, the rats were compelled again to swim in the same cylinder for 5 min and the total time over which the rats remained motionless was measured. A test drug was administered perorally to each animal 30 min before it was compelled to swim for 5 min. Antidepressant agents are known to be capable of specifically reducing the time over which the rats would remain motionless (Psyehopharmaeol., 83, 1-16, 1984, and ibid., 94, 147-160, 1988). The antidepressant effect was calculated by the following formula: [formula]
The procedure of Test Examples 2 and 3 were repeated except that test compounds were administered perorally in a dose of 10 mg/kg.
The procedures of Test Example 2 and 3 were repeated, except that test compounds were administered perorally in a dose of 20 mg/kg to check the longevity of their antianxiety and antidepressant effects for 0.5, 2 and 4 h.

[2] = system: apomorphine induced stereotypic behavior; assay: Antidopamine action, apomorphine induced stereotypic behavior; type: in vivo, rat; settings: for Apomorphine Induced Stereotypic Behavior, sum of scores: maximum of 24; for Antidopamine action: peroral, apomorphine 0.5 mg/kg s.c.
Protocol: Seven-week old male S.D. line rats were administered a test drug perorally and after the passage of 30 min, the dopamine agonist apomorphine was injected subcutaneously in an amount of 0.5 mg/kg. For the subsequent 5-30 min period, the intensity of stereotypic behavior that was induced in the rats by apomorphine was measured six times at 5-min intervals by a scoring method and the sum of the scores was determined (for a maximum of 24).

serotonin 2 receptor = target: T2, serotonin 2 receptor (Rattus norvegicus, UniProt P14842); assay: Serotonin 2 receptor binding experiment (3H-ketancerine); settings: rat cortex and hippocampal tissue; 0.5 nM 3H-ketancerine; IC50 in M; read-out: -logIC50 5-HT2 (converted)
T2 construct: the cortex and hippocampal tissue were extracted from the brain; from tissue; host or cells: brain cortex and hippocampus of 7-week-old male S.D. rats, washed membrane homogenate
T2 sequence (P14842 whole entry): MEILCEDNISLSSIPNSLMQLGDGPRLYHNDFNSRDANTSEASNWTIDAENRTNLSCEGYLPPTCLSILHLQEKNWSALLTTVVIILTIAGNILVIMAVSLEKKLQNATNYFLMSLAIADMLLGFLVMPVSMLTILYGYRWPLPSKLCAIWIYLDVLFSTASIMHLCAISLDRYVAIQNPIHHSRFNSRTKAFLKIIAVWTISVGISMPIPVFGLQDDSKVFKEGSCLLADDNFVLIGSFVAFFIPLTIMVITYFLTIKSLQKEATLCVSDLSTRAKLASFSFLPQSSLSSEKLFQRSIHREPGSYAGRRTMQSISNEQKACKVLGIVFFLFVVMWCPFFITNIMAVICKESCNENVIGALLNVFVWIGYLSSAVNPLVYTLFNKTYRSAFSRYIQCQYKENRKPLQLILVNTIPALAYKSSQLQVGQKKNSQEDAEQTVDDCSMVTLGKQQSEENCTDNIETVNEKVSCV
Protocol: as §1, §2, §3
A reaction solution containing 0.5 nM (final concentration) of ^3 H-ketancerine and 500 μl of brain homogenate in 1.0 ml (final volume) of a buffer was incubated at 30° C. for 30 min. Subsequent procedures were the same as in the serotonin 1A receptor binding experiment and IC50 (M) was determined accordingly. To determine the amount of specific binding, the amount of binding in the presence of excess unlabelled methysergide ([…]) was subtracted from the total amount of binding.

S.D. line male rats [3] = assay: Sedative action, amount of spontaneous movement (Animex); type: in vivo, rat; settings: for Amount of Spontaneous Movement: control 405.2 ± 47.7; for Sedative action / spontaneous movement: peroral 20-60 mg/kg
Protocol: Seven-week old male S.D. line rats were administered a test drug perorally and after the passage of 30 min, the amount of spontaneous movement of the rats was measured for 10 min by means of Animex.

[4] = peroral 20 mg/kg, 0.5 h after administration
[5] = peroral 20 mg/kg, 2.0 h after administration
[6] = peroral 20 mg/kg, 4.0 h after administration
[7] = 20 mg/kg peroral, control 14.4 ± 0.9 (Comp. 1: 16.0 ± 1.1)

SMILES	IC50 (serotonin 1A receptor)	inhibition in vivo at 20 mg/kg (S.D. line male rats [1]; peroral 20 mg/kg)	ED50 (S.D. line male rats [1])	Antidepressant effect (S.D. line male rats [1]; peroral 10 mg/kg)	Antidepressant effect (S.D. line male rats [1]; peroral 20 mg/kg)	Antidepressant effect, longevity (S.D. line male rats [1]; [4])	Antidepressant effect, longevity (S.D. line male rats [1]; [5])	Antidepressant effect, longevity (S.D. line male rats [1]; [6])	Antidepressant activity relative to WY-50324 (ED50) (S.D. line male rats [1]; ratio of ED50)	Apomorphine Induced Stereotypic Behavior, sum of scores [2, 7]	Antidopamine action [2]	IC50 (serotonin 2 receptor)	Amount of Spontaneous Movement (S.D. line male rats [3]; 20 mg/kg peroral)	Amount of Spontaneous Movement (S.D. line male rats [3]; 40 mg/kg peroral)	Amount of Spontaneous Movement (S.D. line male rats [3]; 60 mg/kg peroral)	Sedative action / spontaneous movement (S.D. line male rats [3])	Apomorphine Induced Stereotypic Behavior, sum of scores ([2]; 10 mg/kg peroral, control 14.4 ± 0.9)	Apomorphine Induced Stereotypic Behavior, sum of scores ([2]; 40 mg/kg peroral, control 14.4 ± 0.9)
Cc1cccc2c1OC(CNCCNC(=O)C13CC4CC(CC(C4)C1)C3)CO2 (stereo not shown) [Compound 1, N-{[2-(8-methyl-1,4-benzodioxan-2-ylmethyl)amino]ethyl}tricyclo[3,3,1,1^3, ^7]decane-1-carboxyamide]	1.17 nM	72 ± 5.5%	8.1 mg/kg	66.7 ± 12.6	better antidepressant effects than WY-50324	71.8	73.9	40.7	three times the activity of WY-50324	14.7	no effect at all when it was used in a dose of 20 mg/kg; also recorded: no antidopamine action	30.2 nM	442.0 Counts/10 min	401.8 Counts/10 min	319.4 Counts/10 min	no appreciable sedative action		
O=C(NCCN1CCN(c2ncccn2)CC1)C12CC3CC(CC(C3)C1)C2 [WY-50324, reference compound]	1.26 nM	58.1 ± 5%	24.3 mg/kg			56.7	17.3	0.7		12.1	showed an inhibitory action in high doses	200 nM	315.5 Counts/10 min	361.9 Counts/10 min	401.6 Counts/10 min	no appreciable sedative action	14.7	10.9
